Measured values from ChEMBL document CHEMBL5614396, “Structure-Activity Relationship Studies in Benzothiadiazoles as Novel Vaccine Adjuvants” (J Med Chem, 2024).
The source made the active and inactive calls. No cut-off for these calls is given here.

What was measured:
Mus musculus [1] = assay: Vaccine adjuvant activity against ovalbumin-immunized BALB/c mouse assessed as increase in anti-OVA specific IgG titer in serum at 200 nmol, im co-administered with ovalbumin on day 0 and day 21 and measured on day 28 by ELISA; assay type: functional, organism-based; conditions: time 29.0 day
THP-1 = assay: Vaccine adjuvant activity in human THP-1 cells expressing CD63-Turbo-luciferase and CD9-Emerald green fluorescent protein reporter assessed as extracellular vesicle release by measuring reporter activation at 10 uM incubated for 48 hrs by TurboLuc luciferase based chemiluminescence assay (reference value: 0%); assay type: functional
BMDC [2] = assay: Vaccine adjuvant activity in Balb/c mouse BMDC assessed as induction of Ca2+ influx at 10 uM by Fura-2/8-AM dye based fluorescence analysis (reference value: 0%); assay type: functional
BMDC [3] = assay: Vaccine adjuvant activity in Balb/c mouse BMDC assessed as increase in IL-12 production at 10 uM incubated for 20 hrs by ELISA (reference value: 1.35 +/-0.1 ng/ml); assay type: functional
[4] = Cytotoxicity against Balb/c mouse BMDC assessed as cell viability at 10 uM incubated for 20 hrs by MTT assay (reference value: 100 +/-0.6%); assay type: toxicity, cell-based; conditions: BMDC (bone marrow-derived dendritic cells), read-out: Activity
[5] = Toxicity in ovalbumin-immunized BALB/c mouse assessed as weight loss at 200 nmol, im co-administered with ovalbumin on day 0 and day 21; assay type: organism-based; conditions: in vivo, 528 h, time 22 day
[6] = Toxicity in ovalbumin-immunized BALB/c mouse assessed as behavioural changes at 200 nmol, im co-administered with ovalbumin on day 0 and day 21; assay type: organism-based; conditions: in vivo, 528 h, time 22 day
Mus musculus [7] = assay: Immunostimulatory activity in BALB/c mouse assessed as increase in serum CCL-4 level at 1 ug, im and measured after 2 hrs by multiplex Luminex beads assay; assay type: functional, organism-based; conditions: dose 1.0 µg
Mus musculus [8] = assay: Immunostimulatory activity in BALB/c mouse assessed as increase in serum CCL-2 level at 1 ug, im and measured after 2 hrs by multiplex Luminex beads assay; assay type: functional, organism-based; conditions: dose 1.0 µg
Mus musculus [9] = assay: Immunostimulatory activity in BALB/c mouse assessed as increase in serum IL-6 level at 1 ug, im and measured after 2 hrs by multiplex Luminex beads assay; assay type: functional, organism-based; conditions: dose 1.0 µg
Mus musculus [10] = assay: Immunostimulatory activity in BALB/c mouse assessed as increase in serum CXCL-1 level at 1 ug, im and measured after 2 hrs by ELISA; assay type: functional, organism-based; conditions: dose 1.0 µg
Mus musculus [11] = assay: Immunostimulatory activity in BALB/c mouse assessed as increase in serum CXCL-10 level at 1 ug, im and measured after 6 hrs by multiplex Luminex beads assay; assay type: functional, organism-based; conditions: dose 1.0 µg
Mus musculus [12] = assay: Immunostimulatory activity in BALB/c mouse assessed as increase in serum CCL-4 level at 1 ug, im and measured after 24 hrs by multiplex Luminex beads assay; assay type: functional, organism-based; conditions: dose 1.0 µg
Mus musculus [13] = assay: Immunostimulatory activity in BALB/c mouse assessed as increase in serum CCL-2 level at 1 ug, im and measured after 24 hrs by multiplex Luminex beads assay; assay type: functional, organism-based; conditions: dose 1.0 µg
Mus musculus [14] = assay: Immunostimulatory activity in BALB/c mouse assessed as increase in serum IL-6 level at 1 ug, im and measured after 24 hrs by multiplex Luminex beads assay; assay type: functional, organism-based; conditions: dose 1.0 µg
Mus musculus [15] = assay: Immunostimulatory activity in BALB/c mouse assessed as increase in serum CXCL-1 level at 1 ug, im and measured after 24 hrs by ELISA; assay type: functional, organism-based; conditions: dose 1.0 µg
Mus musculus [16] = assay: Immunostimulatory activity in BALB/c mouse assessed as increase in serum CXCL-1 level at 200 nmol, im and measured after 2 to 6 hrs by ELISA; assay type: functional, organism-based; conditions: time 2-6 hrs
Mus musculus [17] = assay: Immunostimulatory activity in BALB/c mouse assessed as increase in serum CXCL-1 level at 200 nmol, im and measured after 24 hrs by ELISA; assay type: functional, organism-based
Mus musculus [18] = assay: Vaccine adjuvant activity against ovalbumin-immunized BALB/c mouse assessed as induction of antigen-specific Th2 immune responses by measuring increase in anti-OVA specific IgG1 titer in serum at 200 nmol, im co-administered with ovalbumin on day 0 and day 21 and measured on day 28 by ELISA; assay type: functional, organism-based; conditions: time 29.0 day

SMILES | Activity (Mus musculus [1]) | Activity (THP-1) | Activity (BMDC [2]) | Activity (BMDC [3]) | viability at 20 h, 10 µM [4] | Activity [5] | Activity [6] | Activity (Mus musculus [7]) | Activity (Mus musculus [8]) | Activity (Mus musculus [9]) | Activity (Mus musculus [10]) | Activity (Mus musculus [11]) | Activity (Mus musculus [12]) | Activity (Mus musculus [13]) | Activity (Mus musculus [14]) | Activity (Mus musculus [15]) | Activity (Mus musculus [16]) | Activity (Mus musculus [17]) | Activity (Mus musculus [18])
Cc1sc(NS(=O)(=O)c2cccc3nsnc23)c(-c2nc(C#N)no2)c1C | inactive | 1.5% | -7% | 1.59 ng/mL | 97.6% | Non-Toxic | Non-Toxic | – | – | – | – | – | – | – | – | – | – | – | –
CCCCCCCCCCCCCC(=O)O[C@H](CCCCCCCCCCC)CC(=O)N[C@H]1[C@H](OC[C@H]2O[C@H](O)[C@H](NC(=O)C[C@H](O)CCCCCCCCCCC)[C@@H](OC(=O)C[C@H](O)CCCCCCCCCCC)[C@@H]2O)O[C@H](CO)[C@@H](OP(=O)(O)O)[C@@H]1OC(=O)C[C@@H](CCCCCCCCCCC)OC(=O)CCCCCCCCCCCCC | – | – | – | – | – | – | – | Active | Active | Active | Active | Active | inactive | inactive | inactive | inactive | – | – | –
CCOC(=O)c1c(NS(=O)(=O)c2ccccc2)sc(C)c1C | inactive | 0.7% | -10.9% | 1.16 ng/mL | 102% | – | – | – | – | – | – | – | – | – | – | – | – | – | –
CCOC(=O)c1c(NC(=O)c2cccc3nsnc23)sc(C)c1C | – | -0.4% | -5.4% | 1.37 ng/mL | 59.1% | – | – | – | – | – | – | – | – | – | – | – | Active | inactive | –
CCOC(=O)c1c(NS(=O)(=O)c2cccc3nsnc23)sc(C)c1C | Active | 100% | 100% | 1.78 ng/mL | 114% | Non-Toxic | Non-Toxic | – | – | – | – | – | – | – | – | – | Active | inactive | –
CCOC(=O)c1c(NS(=O)(=O)c2cccc3nsnc23)sc(-c2ccccc2)c1C | Active | 338.9% | 115.7% | 3.79 ng/mL | 136% | Non-Toxic | Non-Toxic | – | – | – | – | – | – | – | – | – | Active | inactive | Active
CCOC(=O)c1c(NS(=O)(=O)c2cccc3ccccc23)sc(C)c1C | – | 5.2% | -14.1% | 1.37 ng/mL | 111% | Non-Toxic | Non-Toxic | – | – | – | – | – | – | – | – | – | – | – | –
Cc1sc(NS(=O)(=O)c2cccc3nsnc23)c(C(=O)OC2CCCCC2)c1C | Active | 213% | 177.8% | 3.08 ng/mL | 102% | Non-Toxic | Non-Toxic | – | – | – | – | – | – | – | – | – | Active | inactive | Active
CCOC(=O)c1c(NS(=O)(=O)c2cccc3nccnc23)sc(C)c1C | Active | 113.3% | 122% | 4.12 ng/mL | 181% | Non-Toxic | Non-Toxic | – | – | – | – | – | – | – | – | – | – | – | Active
CCOC(=O)c1c(NS(=O)(=O)c2cccc3n[se]nc23)sc(C)c1C | Active | 210.4% | 147.5% | 3.11 ng/mL | 109% | Non-Toxic | Non-Toxic | – | – | – | – | – | – | – | – | – | – | – | Active
CCOC(=O)c1c(NS(=O)(=O)c2cccc3nsnc23)sc(-c2ccoc2)c1C | – | 114.4% | 94.7% | 1.18 ng/mL | 82.8% | – | – | – | – | – | – | – | – | – | – | – | – | – | –
